Results on 3 compounds are retold here after US12624050B2, “Three fused ring derivative-containing salt or crystal form and pharmaceutical composition thereof” (Shanghai Hansoh Biomedical Co., Ltd., priority 2019, dated 2026).

In assay [1] the target is T1, PI3Kβ (Homo sapiens, UniProt P42338).
T1 construct: purchased Carna #11-102
Put plainly: ADP-Glo Lipid Kinase Assay, PI3Kβ kinase activity. It is filed as biochemical. The conditions noted are these: for Selectivity of PI3Kα vs PI3Kβ: ratio of IC50 values. The procedure:
(§1) In this experiment, ADP-Glo Lipid Kinase Assay (Promega #V9102) from Promega was used. The lipid kinases PI3Kα/β/γ/δ catalyzed the ATP-to-ADP reaction in the presence of the substrate PIP2:3PS and ATP. The lipid kinase activity was characterized by measuring the ADP content in the reaction, and the half inhibition concentrations IC50 of the compounds on PI3Kα/β/γ/δ kinase activity were obtained.
(§2) Kinase reactions were carried out in white 384-well plates (Perkin Elmer #6007299). 2 μL of the compound of various concentrations diluted with ddH2O containing 1% DMSO was added to each well, and 2 μL of ddH2O containing 1% DMSO was added to positive control wells. Then 2 μL of 0.1 to 2 nM PI3K kinase solution diluted with 5× kinase buffer (HEPES 250 mM, MgCl2 15 mM, NaCl 250 mM, BSA 0.05%) was added to each well, and 2 μL of 5× kinase buffer was added to the negative control wells. 4 μL of 50 μM substrate PIP2:3PS (Promega #V1701) prepared with 10× Dilution buffer and ddH2O was added to all wells. Finally, 2 μL of 50 to 100 μM ATP solution diluted with water was added to start the reaction. After the reaction was carried out at room temperature for 90 to 120 minutes, 10 µL of ADP-Glo Reagent (containing 10 mM MgCl2) was added to each well, and the reaction was carried out at room temperature for 60 minutes to eliminate excess adenosine triphosphate (ATP) in the reaction. Then 20 μL of Kinase Detection Reagent was added to each well. After the reaction was carried out for 20 minutes at room temperature in the dark, the chemiluminescence was measured by BioTek Synergy H1 microplate reader.
(§3) The percentage inhibition data of the compound-treated well was calculated from positive control wells (DMSO control wells) and negative control wells (no kinase added) on the plate {% inhibition=100−[(test compound value−negative control value)]/(positive control value-negative control value)×100}. IC50 values were calculated using GraphPad prism and using a four-parameter nonlinear logistic formula to fit the data of different concentrations and corresponding percent inhibition.
A general note: ADP-Glo turns the ADP formed in a reaction into a luminescent signal.

The target in assay [2] is T2, PI3Kδ (Homo sapiens, UniProt O00329).
T2 construct: purchased Carna #11-103
T2 sequence (O00329 whole entry): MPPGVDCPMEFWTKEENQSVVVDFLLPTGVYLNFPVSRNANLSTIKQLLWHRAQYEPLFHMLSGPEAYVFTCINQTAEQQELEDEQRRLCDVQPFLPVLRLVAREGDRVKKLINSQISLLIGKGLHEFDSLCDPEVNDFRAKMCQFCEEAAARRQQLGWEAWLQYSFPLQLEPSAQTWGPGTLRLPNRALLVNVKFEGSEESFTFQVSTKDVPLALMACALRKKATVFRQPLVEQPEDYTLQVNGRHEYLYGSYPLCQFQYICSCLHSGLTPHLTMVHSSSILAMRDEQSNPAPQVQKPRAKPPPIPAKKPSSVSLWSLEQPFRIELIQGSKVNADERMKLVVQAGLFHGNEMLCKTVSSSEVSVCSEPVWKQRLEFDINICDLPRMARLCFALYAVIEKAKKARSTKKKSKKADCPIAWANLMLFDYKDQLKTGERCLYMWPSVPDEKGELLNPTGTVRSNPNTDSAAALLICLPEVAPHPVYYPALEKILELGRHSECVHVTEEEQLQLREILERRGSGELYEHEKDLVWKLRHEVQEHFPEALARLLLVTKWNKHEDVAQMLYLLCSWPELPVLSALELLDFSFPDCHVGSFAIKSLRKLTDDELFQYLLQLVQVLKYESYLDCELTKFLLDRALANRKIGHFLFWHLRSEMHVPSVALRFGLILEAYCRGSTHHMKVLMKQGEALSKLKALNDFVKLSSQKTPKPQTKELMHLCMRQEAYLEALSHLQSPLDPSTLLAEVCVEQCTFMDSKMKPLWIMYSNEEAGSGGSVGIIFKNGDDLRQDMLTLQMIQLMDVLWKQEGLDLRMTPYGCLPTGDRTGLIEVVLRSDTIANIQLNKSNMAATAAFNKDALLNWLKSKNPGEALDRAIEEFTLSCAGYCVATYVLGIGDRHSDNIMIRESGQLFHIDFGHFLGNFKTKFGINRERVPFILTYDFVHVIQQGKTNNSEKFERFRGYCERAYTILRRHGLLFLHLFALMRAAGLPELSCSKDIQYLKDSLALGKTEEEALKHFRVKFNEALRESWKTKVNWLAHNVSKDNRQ
T2 sequence (P27986 whole entry partner): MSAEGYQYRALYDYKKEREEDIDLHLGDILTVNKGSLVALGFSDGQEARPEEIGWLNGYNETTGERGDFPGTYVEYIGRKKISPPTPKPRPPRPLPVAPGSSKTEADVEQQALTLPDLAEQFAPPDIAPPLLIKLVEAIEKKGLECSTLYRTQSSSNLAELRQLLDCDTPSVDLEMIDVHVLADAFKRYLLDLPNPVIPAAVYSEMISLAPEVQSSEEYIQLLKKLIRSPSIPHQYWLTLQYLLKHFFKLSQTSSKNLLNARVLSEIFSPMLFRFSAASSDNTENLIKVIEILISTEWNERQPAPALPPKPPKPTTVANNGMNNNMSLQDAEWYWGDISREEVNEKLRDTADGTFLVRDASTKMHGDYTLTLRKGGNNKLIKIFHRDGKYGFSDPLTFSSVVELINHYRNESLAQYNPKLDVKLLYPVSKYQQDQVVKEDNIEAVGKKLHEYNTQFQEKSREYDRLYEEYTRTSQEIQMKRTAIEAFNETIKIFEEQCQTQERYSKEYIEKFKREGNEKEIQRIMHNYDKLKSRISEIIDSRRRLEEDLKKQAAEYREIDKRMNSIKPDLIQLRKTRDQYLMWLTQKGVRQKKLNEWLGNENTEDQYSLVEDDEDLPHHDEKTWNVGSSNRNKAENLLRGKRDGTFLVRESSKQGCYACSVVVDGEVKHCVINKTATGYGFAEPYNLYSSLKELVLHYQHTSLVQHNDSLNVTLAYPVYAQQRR
Put plainly: ADP-Glo Lipid Kinase Assay, PI3Kδ kinase activity. The class given is biochemical. The conditions noted are these: for Selectivity of PI3Kα vs PI3Kδ: ratio of IC50 values. The procedure: as §1, §2, §3

In assay [3] the test system is HGC-27 (E542K). Put plainly: Proliferation inhibition of PI3Kα mutant cancer cells, Cell Titer-Glo, HGC-27. It is filed as cell-based. As to conditions: Homo sapiens. The protocol:
(§4) The proliferation inhibitory effect of the compounds of the examples on the PI3Kα mutant cancer cell lines (HCC1954, HGC-27 and MKN1) was detected by Cell Titer-Glo method. Cell lines were cultured in RPMI 1640 medium (Gibco #22400089) containing 10% FBS (Gibco #10091148) and 1% P/S (Hyclone #SV30010) under the condition of 37° C. and 5% CO2. The cells were collected before the experiment, and the cell density was adjusted after cell counting. The cells were seeded in a white 96-well plate (Corning #3610) at a density of 1000 to 10000 cells/well, and incubated in an incubator at 37° C. and 5% CO2 overnight. The prepared compound solutions of different concentrations and the corresponding solvent controls were added to the plate. The plate was again incubated in an incubator at 37° C. and 5% CO2 for 48 to 96 hours. Then the cell plate and its contents were equilibrated to room temperature. 20 to 100 μL of Cell Titer-Glo solution (Promega #G7573) was added to each well, and the plate was shaken and mixed well, then incubated at room temperature for 5 to 30 minutes in the dark. The chemiluminescence was measured by a SynergyH1 microplate reader from BioTek.
(§5) The percentage inhibition data of the compound-treated well was calculated from solvent control wells on the plate {% inhibition=100−([…])×100}. IC50 values were calculated using GraphPad prism and using a four-parameter nonlinear logistic formula to fit the data of different concentrations and corresponding percent inhibition.
Background: ATP-based viability assays read luminescence as a measure of living cells.

The target of assay [4] is T3, PI3Kγ (Homo sapiens, UniProt P48736).
T3 construct: purchased Thermofisher #PV4786
T3 sequence (P48736 whole entry): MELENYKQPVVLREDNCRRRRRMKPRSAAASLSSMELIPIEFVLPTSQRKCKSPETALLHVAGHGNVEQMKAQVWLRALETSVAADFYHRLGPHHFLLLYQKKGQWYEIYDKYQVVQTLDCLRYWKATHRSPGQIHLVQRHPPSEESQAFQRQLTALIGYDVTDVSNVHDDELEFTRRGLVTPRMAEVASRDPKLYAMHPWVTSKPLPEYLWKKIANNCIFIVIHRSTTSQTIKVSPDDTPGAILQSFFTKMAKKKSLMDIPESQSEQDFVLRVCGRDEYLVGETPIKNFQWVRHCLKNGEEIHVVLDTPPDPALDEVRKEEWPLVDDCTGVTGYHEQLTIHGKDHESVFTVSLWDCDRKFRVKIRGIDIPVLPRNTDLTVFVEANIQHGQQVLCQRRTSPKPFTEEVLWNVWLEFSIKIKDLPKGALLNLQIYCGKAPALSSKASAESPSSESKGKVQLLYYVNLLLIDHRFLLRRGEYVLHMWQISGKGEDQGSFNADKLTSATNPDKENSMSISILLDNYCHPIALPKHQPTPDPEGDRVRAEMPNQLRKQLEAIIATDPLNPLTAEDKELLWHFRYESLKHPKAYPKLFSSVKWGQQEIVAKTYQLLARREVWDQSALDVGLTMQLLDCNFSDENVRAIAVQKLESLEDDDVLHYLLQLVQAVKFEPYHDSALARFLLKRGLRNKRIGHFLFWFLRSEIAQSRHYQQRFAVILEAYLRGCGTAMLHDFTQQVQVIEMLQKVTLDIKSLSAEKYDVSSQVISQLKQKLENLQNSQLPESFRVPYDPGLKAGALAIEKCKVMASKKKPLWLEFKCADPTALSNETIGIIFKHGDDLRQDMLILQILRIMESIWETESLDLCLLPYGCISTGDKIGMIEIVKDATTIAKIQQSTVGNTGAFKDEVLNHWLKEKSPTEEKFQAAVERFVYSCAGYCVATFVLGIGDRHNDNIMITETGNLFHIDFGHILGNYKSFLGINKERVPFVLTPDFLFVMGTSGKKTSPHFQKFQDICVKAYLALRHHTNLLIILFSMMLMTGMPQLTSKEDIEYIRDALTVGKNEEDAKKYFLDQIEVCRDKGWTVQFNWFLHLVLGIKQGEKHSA
In words: ADP-Glo Lipid Kinase Assay, PI3Kγ kinase activity. As to conditions: for Selectivity of PI3Kα vs PI3Kγ: ratio of IC50 values. The class given is biochemical. The procedure: as §1, §2, §3

Assay [5] deals with HCC1954 (H1047R). In words: Proliferation inhibition of PI3Kα mutant cancer cells, Cell Titer-Glo, HCC1954. The class given is cell-based. As to conditions: Homo sapiens. The protocol:
as §4, §5

Assay [6] deals with MKN1 (E545K). Put plainly: Proliferation inhibition of PI3Kα mutant cancer cells, Cell Titer-Glo, MKN1. It is filed as cell-based. The conditions noted are these: Homo sapiens, MKN-1. The procedure: as §4, §5
The test system of assay [7] is HCC1954 cell. Put plainly: In vivo efficacy test, HCC1954 tumor-bearing nude mice. Further details: species or system BALB/c nude mice. The conditions noted are these: oral, 10 mg/kg, once/day, 21 days (Example 22: 19 days). The procedure: • a. A strain of HCC1954 cell was taken from the cell bank, recovered with RPMI-1640 medium (RPMI-1640+10% FBS+1% SP), plated in a cell culture flask (cell type, date, name of the experimenter and the like were labeled on the wall of the flask) and cultured in a CO2 incubator (the temperature was 37° C. and the CO2 concentration was 5% in the incubator). • b. Cells were passaged when they covered 80 to 90% of the bottom of the culture flask. After passage, the cells continued to be cultured in the CO2 incubator. This process was repeated until the number of cells was sufficient for the in vivo efficacy test. • c. The cultured cells were collected and counted with an automatic cell counter, and then resuspended with PBS and Matrigel Matrix according to the counting results to prepare a cell suspension (density 5×10^7/mL), which was placed in an ice box for use. 4.3.2 Cell Inoculation • a. The nude mice were labeled with disposable universal ear tags for rats and mice before inoculation. • b. During the inoculation, the cell suspension was mixed well. 0.1 to 1 mL of the cell suspension was drawn with a 1 mL syringe, air bubbles were removed, and then the syringe was placed on an ice pack for use. • c. The nude mouse was bound with the left hand. The position on the right side of the back close to the right shoulder of the nude mouse (inoculation site) was disinfected with 75% alcohol. Inoculation started after 30 seconds. • d. The test nude mice were successively inoculated (each mouse was inoculated with 0.1 mL of cell suspension). 4.3.3 Tumor Measurement, Grouping and Administration of Tumor-Bearing Mice • a. According to the tumor growth, the tumors was measured on 14 to 18 days after inoculation, and the tumor size was calculated. Calculation of tumor volume: tumor volume (mm^3)=length (mm)×width (mm)×width (mm)/2 • b. The tumor-bearing mice were grouped according to their body weight and tumor size by random grouping. • c. The test compounds were administered according to the grouping results (administration route: oral administration; administration dose: 10 mg/kg; administration volume: 10 mL/kg; administration frequency: once/day; administration cycle: 21 days; vehicle: 0.5% CMC/1% Tween 80). • d. Tumors were measured and weighed twice a week after the administration of test compounds began. • e. Animals were euthanized at the end of the experiment. • f. Data were processed by using softwares such as Excel. […] When the tumor regress, TGI (%)=[1−(average tumor volume of the treatment group at the end of the administration−average tumor volume of the treatment group at the beginning of the administration)/average tumor volume of the treatment group at the beginning of the administration]×100%.

T1 sequence (P42338 whole entry): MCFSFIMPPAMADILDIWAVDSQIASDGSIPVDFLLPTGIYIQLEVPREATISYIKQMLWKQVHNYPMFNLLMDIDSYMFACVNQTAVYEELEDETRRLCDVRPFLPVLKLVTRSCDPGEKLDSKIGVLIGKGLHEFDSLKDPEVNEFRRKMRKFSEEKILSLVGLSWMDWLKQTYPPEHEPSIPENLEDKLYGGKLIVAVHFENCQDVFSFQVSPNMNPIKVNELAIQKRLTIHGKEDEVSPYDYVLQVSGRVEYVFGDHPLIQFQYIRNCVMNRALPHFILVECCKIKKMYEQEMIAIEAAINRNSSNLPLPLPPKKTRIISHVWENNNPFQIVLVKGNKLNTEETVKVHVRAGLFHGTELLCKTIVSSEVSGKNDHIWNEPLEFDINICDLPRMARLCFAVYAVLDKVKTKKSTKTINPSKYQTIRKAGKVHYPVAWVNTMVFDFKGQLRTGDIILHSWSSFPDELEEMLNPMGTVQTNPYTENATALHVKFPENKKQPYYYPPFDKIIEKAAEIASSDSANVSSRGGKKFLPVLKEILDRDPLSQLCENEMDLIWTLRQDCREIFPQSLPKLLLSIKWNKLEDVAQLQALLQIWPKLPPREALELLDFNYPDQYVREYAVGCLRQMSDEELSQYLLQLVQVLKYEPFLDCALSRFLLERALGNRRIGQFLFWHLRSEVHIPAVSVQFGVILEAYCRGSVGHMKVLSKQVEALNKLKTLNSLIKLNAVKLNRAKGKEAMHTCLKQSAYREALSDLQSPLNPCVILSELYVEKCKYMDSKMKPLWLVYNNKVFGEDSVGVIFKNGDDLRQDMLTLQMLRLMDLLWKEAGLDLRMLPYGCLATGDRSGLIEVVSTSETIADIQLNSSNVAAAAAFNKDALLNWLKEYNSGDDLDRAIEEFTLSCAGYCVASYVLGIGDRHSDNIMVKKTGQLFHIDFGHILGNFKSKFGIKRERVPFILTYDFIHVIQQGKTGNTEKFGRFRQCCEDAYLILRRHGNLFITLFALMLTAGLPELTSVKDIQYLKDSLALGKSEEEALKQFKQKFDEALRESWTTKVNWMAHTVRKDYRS
T1 sequence (P27986 whole entry partner): as the sequence (P27986 whole entry partner) above

For orientation: IC50 means the midpoint of a concentration-inhibition curve. Take `C[C@H](Nc1ccc2c(c1)OCCn1cc(N3C(=O)SC[C@H]3C(F)F)nc1-2)C(N)=O` [Example 22, (S)-2-((2-((R)-4-(difluoromethyl)-2-oxothiazolidin-3-yl)-5,6-dihydrobenzo[f]imidazo[1,2-d][1,4]oxazepin-9-yl)amino)propionamide]: the “Selectivity of PI3Kα vs PI3Kβ” value in assay [1] amounted to 840. Besides, the “Selectivity of PI3Kα vs PI3Kδ” value in assay [2] stood at 245. Besides, the IC50 was determined as 40 nM in assay [3], 21 nM in assay [5] and 60 nM in assay [6]. Further, in assay [4], the “Selectivity of PI3Kα vs PI3Kγ” value stood at 450. Moreover, the “Tumor growth inhibition rate” value in assay [7] stood at 132%.
Take `C[C@H](Nc1ccc2c(c1)SCCn1cc(N3C(=O)OC[C@H]3C(F)F)nc1-2)C(N)=O` [Example 62, (S)-2-((2-((S)-4-(difluoromethyl)-2-oxooxazolidin-3-yl)-5,6-dihydrobenzo[f]imidazo[1,2-d][1,4]thiazepin-9-yl)amino)propionamide]: the IC50 was found to be 102 nM in assay [1]; 28 nM in assay [2]; 22 nM in assay [3]; 50 nM in assay [4]; 13 nM in assay [5]; 25 nM in assay [6]. Also, the “Selectivity of PI3Kα vs PI3Kβ” value in assay [1] came out at 1020. The “Selectivity of PI3Kα vs PI3Kδ” value in assay [2] was 280. Also, the “Selectivity of PI3Kα vs PI3Kγ” value in assay [4] was 500. In assay [7], the “Tumor growth inhibition rate” value stood at 147%.
For `C[C@H](Nc1ccc2c(c1)N(C)CCn1cc(N3C(=O)OC[C@H]3C(F)F)nc1-2)C(N)=O` [Example 56, (S)-2-((2-((S)-4-(difluoromethyl)-2-oxooxazolidin-3-yl)-7-methyl-6,7-dihydro-5H-benzo[f]imidazo[1,2-d][1,4]diazoheptin-9-yl)amino)propionamide], the IC50 in assay [1] is 168 nM; in assay [2], 49 nM; in assay [3], 110 nM; in assay [4], 90 nM; in assay [5], 50 nM; in assay [6], 104 nM. For the same compound, in assay [1], the “Selectivity of PI3Kα vs PI3Kβ” value worked out at 336. The “Selectivity of PI3Kα vs PI3Kδ” value in assay [2] is reported as 98. The “Selectivity of PI3Kα vs PI3Kγ” value in assay [4] was determined as 180. Further, in assay [7], the “Tumor growth inhibition rate” value was 122%.
